In article PMC4730229, “Benzobisthiazoles Represent a Novel Scaffold for Kinase Inhibitors of CLK Family Members” (Biochemistry, 2015):

Columns and labels:
[1] = target: T1, GST-CLK2cd (CLK2 catalytic domain) (Homo sapiens, UniProt P49760); test: High-throughput screen, Kinase-Glo in vitro kinase assay; format: biochemical; conditions: compound at 10 μM; read-out: percentage of inhibition on CLK2 (primary screen)
T1 construct: cDNA encoding the CLK2 catalytic domain (CLK2cd, amino acids 140–496); made in house; host or cells: Escherichia coli BL21(DE3)-R3-lambda-PPase
Procedure: A small molecule inhibitor library consisting of 1600 compounds was obtained from LIFE Chemicals (Kiev, Ukraine). These compounds are part of the CUTE kinase collection that was predicted by in silico profiling against a panel of targets and includes potent kinase inhibitor compounds.[16] Compounds were dissolved as 10 mM stocks in DMSO and stored at room temperature, in the presence of 5% humidity and 5% oxygen in the dark in a Roylan Storage Pod system. Compounds were dispensed into white 384-well plates using the Labcyte Echo520 instrument at a final concentration of 10 μM. Next, 5 μL of 144.92 nM purified GST-CLK2cd in kinase assay buffer A was added to the compounds, incubated for 10 min at room temperature prior to addition of 5 μL of a 2 μM ATP/10 μM S6K peptide mixture, and incubated again for 60 min at room temperature. Subsequently, 10 μL of Kinase-Glo was added to the wells, and the plates were analyzed after 10 min on the Envision II multilabel plate reader (PerkinElmer). […] The percentage of inhibition is equal to 100 – [(total ATP before assay – remaining ATP in assay with compound)/(total ATP before assay – remaining ATP in assay with DMSO) × 100].

IKKe = IKKe (Homo sapiens, UniProt Q14164); test: Kinase profiling (radioactive filter binding); format: biochemical; conditions: 1 uM compound
Procedure: (§1) 3A5 and 5E4 were sent to the International Centre for Kinase Profiling at the MRC Protein Phosphorylation and Ubiquitylation Unit for profiling (as described in ref ([17])). Compounds were profiled against 140 kinases using a radioactive ([^33P]ATP) filter binding assay at a concentration of 1 μM. Results were obtained as inhibition of kinase activity and are listed in Supplementary Table 2.

LKB1 = LKB1 (Homo sapiens, UniProt Q15831); test: Kinase profiling (radioactive filter binding); format: biochemical; conditions: 1 uM compound
Procedure: as §1

SRPK1 = SRPK1 (Homo sapiens, UniProt Q96SB4); test: Kinase profiling (radioactive filter binding); format: biochemical; conditions: 1 uM compound
Chain of SRPK1 (Q96SB4 whole entry): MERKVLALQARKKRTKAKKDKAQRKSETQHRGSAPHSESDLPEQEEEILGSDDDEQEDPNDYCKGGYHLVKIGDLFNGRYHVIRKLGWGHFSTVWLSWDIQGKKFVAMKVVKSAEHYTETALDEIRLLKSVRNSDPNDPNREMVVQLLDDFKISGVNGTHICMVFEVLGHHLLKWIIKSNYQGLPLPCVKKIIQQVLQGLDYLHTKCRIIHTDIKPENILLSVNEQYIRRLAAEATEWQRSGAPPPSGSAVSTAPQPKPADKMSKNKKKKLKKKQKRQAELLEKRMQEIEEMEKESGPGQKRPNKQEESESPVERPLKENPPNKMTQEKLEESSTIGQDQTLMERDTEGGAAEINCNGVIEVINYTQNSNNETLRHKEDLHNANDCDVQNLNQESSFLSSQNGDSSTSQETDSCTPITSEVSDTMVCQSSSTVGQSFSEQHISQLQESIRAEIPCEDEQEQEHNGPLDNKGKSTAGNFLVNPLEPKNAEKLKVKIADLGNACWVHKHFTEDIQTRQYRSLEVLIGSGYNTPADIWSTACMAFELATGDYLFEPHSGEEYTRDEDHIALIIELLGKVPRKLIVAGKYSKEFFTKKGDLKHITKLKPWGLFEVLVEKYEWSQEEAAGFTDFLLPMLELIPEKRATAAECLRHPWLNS
Procedure: as §1

TGFBR1 = TGFBR1 (Homo sapiens, UniProt P36897); test: Kinase profiling (radioactive filter binding); format: biochemical; conditions: 1 uM compound
Chain of TGFBR1 (P36897 34-503): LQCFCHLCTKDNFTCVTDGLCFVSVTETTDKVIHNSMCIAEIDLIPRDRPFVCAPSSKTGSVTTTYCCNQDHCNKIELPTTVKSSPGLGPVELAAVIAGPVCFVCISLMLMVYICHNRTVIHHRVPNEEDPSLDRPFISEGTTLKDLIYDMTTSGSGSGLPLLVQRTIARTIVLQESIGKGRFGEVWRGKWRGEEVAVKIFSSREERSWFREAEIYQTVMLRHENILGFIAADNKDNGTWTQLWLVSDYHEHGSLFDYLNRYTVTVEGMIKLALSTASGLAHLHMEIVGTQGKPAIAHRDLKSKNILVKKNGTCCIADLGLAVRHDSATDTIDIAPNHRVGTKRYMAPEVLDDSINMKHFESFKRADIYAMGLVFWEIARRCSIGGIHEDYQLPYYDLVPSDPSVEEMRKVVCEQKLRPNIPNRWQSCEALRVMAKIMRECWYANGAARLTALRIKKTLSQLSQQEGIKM
Procedure: as §1

MKK1 = MKK1 (Homo sapiens, UniProt Q02750); test: Kinase profiling (radioactive filter binding); format: biochemical; conditions: 1 uM compound
Procedure: as §1

JNK3 = JNK3 (Homo sapiens, UniProt P53779); test: Kinase profiling (radioactive filter binding); format: biochemical; conditions: 1 uM compound
Procedure: as §1

MARK2 = MARK2 (Homo sapiens, UniProt Q7KZI7); test: Kinase profiling (radioactive filter binding); format: biochemical; conditions: 1 uM compound
Procedure: as §1

GSK3b = GSK3b (Homo sapiens, UniProt P49841); test: Kinase profiling (radioactive filter binding); format: biochemical; conditions: 1 uM compound
Chain of GSK3b (P49841 whole entry): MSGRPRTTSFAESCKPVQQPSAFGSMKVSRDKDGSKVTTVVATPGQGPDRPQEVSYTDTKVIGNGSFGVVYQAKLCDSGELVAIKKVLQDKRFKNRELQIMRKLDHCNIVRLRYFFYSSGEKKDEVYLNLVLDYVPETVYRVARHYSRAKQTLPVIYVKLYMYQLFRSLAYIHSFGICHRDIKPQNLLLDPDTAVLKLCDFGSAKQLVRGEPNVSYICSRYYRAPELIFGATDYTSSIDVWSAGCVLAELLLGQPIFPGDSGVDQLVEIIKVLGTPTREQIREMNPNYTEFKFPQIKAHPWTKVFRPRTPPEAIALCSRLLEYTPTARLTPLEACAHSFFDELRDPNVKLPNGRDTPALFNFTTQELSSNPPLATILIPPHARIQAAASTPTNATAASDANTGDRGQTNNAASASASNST
Procedure: as §1

DDR2 = DDR2 (Homo sapiens, UniProt Q16832); test: Kinase profiling (radioactive filter binding); format: biochemical; conditions: 1 uM compound
Procedure: as §1

DYRK2 = DYRK2 (Homo sapiens, UniProt Q92630); test: Kinase profiling (radioactive filter binding); format: biochemical; conditions: 1 uM compound
Chain of DYRK2 (Q92630 whole entry): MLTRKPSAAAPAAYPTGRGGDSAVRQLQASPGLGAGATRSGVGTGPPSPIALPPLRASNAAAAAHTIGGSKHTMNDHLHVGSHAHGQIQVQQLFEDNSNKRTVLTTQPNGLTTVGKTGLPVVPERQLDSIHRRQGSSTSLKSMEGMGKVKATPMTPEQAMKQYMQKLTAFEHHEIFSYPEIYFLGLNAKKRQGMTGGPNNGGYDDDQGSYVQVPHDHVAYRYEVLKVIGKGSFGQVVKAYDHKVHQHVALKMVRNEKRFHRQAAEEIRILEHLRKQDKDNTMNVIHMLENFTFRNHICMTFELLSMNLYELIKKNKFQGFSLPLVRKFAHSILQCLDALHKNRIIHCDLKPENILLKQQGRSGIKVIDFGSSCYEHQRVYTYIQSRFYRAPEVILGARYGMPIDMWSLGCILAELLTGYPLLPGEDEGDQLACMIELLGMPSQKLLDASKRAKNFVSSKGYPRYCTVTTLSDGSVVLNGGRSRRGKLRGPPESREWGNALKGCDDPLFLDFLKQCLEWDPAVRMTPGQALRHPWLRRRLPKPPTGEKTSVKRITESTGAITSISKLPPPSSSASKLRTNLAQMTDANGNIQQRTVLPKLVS
Procedure: as §1

MKK6 = MKK6 (Homo sapiens, UniProt P52564); test: Kinase profiling (radioactive filter binding); format: biochemical; conditions: 1 uM compound
Chain of MKK6 (P52564 whole entry): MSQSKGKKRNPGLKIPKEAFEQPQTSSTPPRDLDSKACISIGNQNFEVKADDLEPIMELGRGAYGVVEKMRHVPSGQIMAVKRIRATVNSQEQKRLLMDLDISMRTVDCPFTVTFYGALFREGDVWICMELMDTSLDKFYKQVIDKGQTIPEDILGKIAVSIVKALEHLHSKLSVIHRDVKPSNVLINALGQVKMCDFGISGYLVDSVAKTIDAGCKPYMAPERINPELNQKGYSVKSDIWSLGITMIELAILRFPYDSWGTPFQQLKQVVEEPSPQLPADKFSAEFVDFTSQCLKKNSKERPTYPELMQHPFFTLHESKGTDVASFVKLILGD
Procedure: as §1

SmMLCK = SmMLCK (Homo sapiens, UniProt Q15746); test: Kinase profiling (radioactive filter binding); format: biochemical; conditions: 1 uM compound
Procedure: as §1

IR = IR (Homo sapiens, UniProt P06213); test: Kinase profiling (radioactive filter binding); format: biochemical; conditions: 1 uM compound
Procedure: as §1

DYRK3 = DYRK3 (Homo sapiens, UniProt O43781); test: Kinase profiling (radioactive filter binding); format: biochemical; conditions: 1 uM compound
Procedure: as §1

CK1γ2 = CK1γ2 (Homo sapiens, UniProt P78368); test: Kinase profiling (radioactive filter binding); format: biochemical; conditions: 1 uM compound
Chain of CK1γ2 (P78368 whole entry): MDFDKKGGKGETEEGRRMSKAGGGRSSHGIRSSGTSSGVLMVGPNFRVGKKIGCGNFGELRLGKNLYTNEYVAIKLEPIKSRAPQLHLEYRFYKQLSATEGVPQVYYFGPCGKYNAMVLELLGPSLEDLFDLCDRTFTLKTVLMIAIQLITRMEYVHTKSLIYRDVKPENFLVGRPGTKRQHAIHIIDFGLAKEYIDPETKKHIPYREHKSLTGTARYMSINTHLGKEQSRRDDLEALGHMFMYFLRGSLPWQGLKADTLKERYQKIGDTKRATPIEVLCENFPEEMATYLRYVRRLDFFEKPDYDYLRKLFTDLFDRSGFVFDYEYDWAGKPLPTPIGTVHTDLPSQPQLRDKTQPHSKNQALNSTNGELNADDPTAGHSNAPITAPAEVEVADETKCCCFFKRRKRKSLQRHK
Procedure: as §1

Lck = Lck (Homo sapiens, UniProt P06239); test: Kinase profiling (radioactive filter binding); format: biochemical; conditions: 1 uM compound
Procedure: as §1

TAO1 = TAO1 (Homo sapiens, UniProt Q7L7X3); test: Kinase profiling (radioactive filter binding); format: biochemical; conditions: 1 uM compound
Procedure: as §1

MAP4K3 = MAP4K3 (Homo sapiens, UniProt Q8IVH8); test: Kinase profiling (radioactive filter binding); format: biochemical; conditions: 1 uM compound
Chain of MAP4K3 (Q8IVH8 whole entry): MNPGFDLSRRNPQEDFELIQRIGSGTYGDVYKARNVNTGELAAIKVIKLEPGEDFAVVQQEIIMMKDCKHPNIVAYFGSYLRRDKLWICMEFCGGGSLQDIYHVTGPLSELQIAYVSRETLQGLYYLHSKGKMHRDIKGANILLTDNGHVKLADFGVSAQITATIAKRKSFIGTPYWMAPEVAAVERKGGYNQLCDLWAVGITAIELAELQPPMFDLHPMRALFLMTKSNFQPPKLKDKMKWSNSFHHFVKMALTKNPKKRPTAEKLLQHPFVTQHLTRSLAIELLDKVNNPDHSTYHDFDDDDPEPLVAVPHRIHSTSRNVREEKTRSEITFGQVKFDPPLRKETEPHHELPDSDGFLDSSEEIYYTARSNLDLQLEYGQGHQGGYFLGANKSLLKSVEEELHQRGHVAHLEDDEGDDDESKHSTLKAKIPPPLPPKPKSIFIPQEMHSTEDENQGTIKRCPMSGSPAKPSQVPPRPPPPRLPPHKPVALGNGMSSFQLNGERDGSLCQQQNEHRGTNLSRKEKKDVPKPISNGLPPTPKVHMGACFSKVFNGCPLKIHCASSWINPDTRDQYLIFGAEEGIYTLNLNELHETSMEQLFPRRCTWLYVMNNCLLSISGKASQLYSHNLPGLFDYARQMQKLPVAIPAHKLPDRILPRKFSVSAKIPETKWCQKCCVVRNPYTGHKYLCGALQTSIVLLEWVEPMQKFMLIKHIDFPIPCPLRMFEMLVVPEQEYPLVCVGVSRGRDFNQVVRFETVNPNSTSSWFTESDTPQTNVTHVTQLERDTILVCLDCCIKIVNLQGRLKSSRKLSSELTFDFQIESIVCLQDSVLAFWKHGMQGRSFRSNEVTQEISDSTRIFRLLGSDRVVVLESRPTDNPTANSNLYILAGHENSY
Procedure: as §1

MPSK1 = MPSK1 (Homo sapiens, UniProt O75716); test: Kinase profiling (radioactive filter binding); format: biochemical; conditions: 1 uM compound
Procedure: as §1

TTK = TTK (Homo sapiens, UniProt P33981); test: Kinase profiling (radioactive filter binding); format: biochemical; conditions: 1 uM compound
Procedure: as §1

HER4 = HER4 (Homo sapiens, UniProt Q15303); test: Kinase profiling (radioactive filter binding); format: biochemical; conditions: 1 uM compound
Procedure: as §1

CHK2 = CHK2 (Homo sapiens, UniProt O96017); test: Kinase profiling (radioactive filter binding); format: biochemical; conditions: 1 uM compound
Procedure: as §1

BRK = BRK (Homo sapiens, UniProt Q13882); test: Kinase profiling (radioactive filter binding); format: biochemical; conditions: 1 uM compound
Procedure: as §1

p38a MAPK = p38a MAPK (Homo sapiens, UniProt Q16539); test: Kinase profiling (radioactive filter binding); format: biochemical; conditions: 1 uM compound
Chain of p38a MAPK (Q16539 whole entry): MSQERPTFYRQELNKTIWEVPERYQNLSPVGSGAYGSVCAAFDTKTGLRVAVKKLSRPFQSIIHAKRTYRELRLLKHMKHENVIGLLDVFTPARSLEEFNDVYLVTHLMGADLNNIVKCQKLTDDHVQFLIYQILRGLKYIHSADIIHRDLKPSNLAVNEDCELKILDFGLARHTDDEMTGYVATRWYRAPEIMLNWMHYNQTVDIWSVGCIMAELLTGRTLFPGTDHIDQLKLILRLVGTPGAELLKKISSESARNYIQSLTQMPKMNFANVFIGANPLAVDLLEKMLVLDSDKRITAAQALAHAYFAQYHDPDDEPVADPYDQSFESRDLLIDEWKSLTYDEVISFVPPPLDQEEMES
Procedure: as §1

VEG-FR = VEG-FR (Homo sapiens, UniProt P17948); test: Kinase profiling (radioactive filter binding); format: biochemical; conditions: 1 uM compound
Procedure: as §1

MELK = MELK (Homo sapiens, UniProt Q14680); test: Kinase profiling (radioactive filter binding); format: biochemical; conditions: 1 uM compound
Procedure: as §1

IRAK4 = IRAK4 (Homo sapiens, UniProt Q9NWZ3); test: Kinase profiling (radioactive filter binding); format: biochemical; conditions: 1 uM compound
Chain of IRAK4 (Q9NWZ3 whole entry): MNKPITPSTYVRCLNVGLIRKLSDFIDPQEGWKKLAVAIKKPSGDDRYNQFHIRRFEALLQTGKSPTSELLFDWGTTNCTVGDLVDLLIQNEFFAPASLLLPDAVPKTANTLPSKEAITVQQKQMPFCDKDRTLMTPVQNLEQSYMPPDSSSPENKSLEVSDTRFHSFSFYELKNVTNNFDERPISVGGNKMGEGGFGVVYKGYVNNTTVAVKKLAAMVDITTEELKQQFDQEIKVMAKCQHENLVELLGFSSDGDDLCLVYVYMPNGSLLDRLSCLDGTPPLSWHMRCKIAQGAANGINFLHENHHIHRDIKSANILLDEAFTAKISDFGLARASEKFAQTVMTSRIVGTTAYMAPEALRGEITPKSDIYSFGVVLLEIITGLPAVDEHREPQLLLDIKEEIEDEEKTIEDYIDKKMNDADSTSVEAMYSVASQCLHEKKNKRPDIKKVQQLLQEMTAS
Procedure: as §1

ERK2 = ERK2 (Homo sapiens, UniProt P28482); test: Kinase profiling (radioactive filter binding); format: biochemical; conditions: 1 uM compound
Chain of ERK2 (P28482 whole entry): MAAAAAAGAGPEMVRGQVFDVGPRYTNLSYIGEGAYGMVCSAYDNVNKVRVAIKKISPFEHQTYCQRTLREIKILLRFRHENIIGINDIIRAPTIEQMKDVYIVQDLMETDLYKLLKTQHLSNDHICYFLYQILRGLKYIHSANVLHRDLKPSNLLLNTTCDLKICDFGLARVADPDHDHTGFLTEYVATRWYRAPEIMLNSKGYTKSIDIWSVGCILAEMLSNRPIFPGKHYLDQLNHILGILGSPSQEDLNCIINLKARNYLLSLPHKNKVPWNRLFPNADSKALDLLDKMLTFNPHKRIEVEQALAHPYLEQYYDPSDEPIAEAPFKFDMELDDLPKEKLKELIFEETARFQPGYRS
Procedure: as §1

NEK2a = NEK2a (Homo sapiens, UniProt P51955); test: Kinase profiling (radioactive filter binding); format: biochemical; conditions: 1 uM compound
Procedure: as §1

PKCγ = PKCγ (Homo sapiens, UniProt P05129); test: Kinase profiling (radioactive filter binding); format: biochemical; conditions: 1 uM compound
Procedure: as §1

IRR = IRR (Homo sapiens, UniProt P14616); test: Kinase profiling (radioactive filter binding); format: biochemical; conditions: 1 uM compound
Procedure: as §1

AMPK (hum) = test: Kinase profiling (radioactive filter binding); format: biochemical, human; conditions: 1 uM compound
Procedure: as §1

PHK = test: Kinase profiling (radioactive filter binding); format: biochemical, human; conditions: 1 uM compound
Procedure: as §1

Row | Structure (SMILES) | inhibition at 10 µM [1] | IKKe activity in kinase profiling (IKKe) | LKB1 activity in kinase profiling (LKB1) | SRPK1 activity in kinase profiling (SRPK1) | TGFBR1 activity in kinase profiling (TGFBR1) | MKK1 activity in kinase profiling (MKK1) | JNK3 activity in kinase profiling (JNK3) | MARK2 activity in kinase profiling (MARK2) | GSK3b activity in kinase profiling (GSK3b) | DDR2 activity in kinase profiling (DDR2) | DYRK2 activity in kinase profiling (DYRK2) | MKK6 activity in kinase profiling (MKK6) | SmMLCK activity in kinase profiling (SmMLCK) | IR activity in kinase profiling (IR) | DYRK3 activity in kinase profiling (DYRK3) | CK1γ2 activity in kinase profiling (CK1γ2) | Lck activity in kinase profiling (Lck) | TAO1 activity in kinase profiling (TAO1) | MAP4K3 activity in kinase profiling (MAP4K3) | MPSK1 activity in kinase profiling (MPSK1) | also measured
1 | CSc1nc2ccc3nc(NC(=O)c4ccco4)sc3c2s1 [5E4, N-[7-(methylsulfanyl)[1,3]thiazolo[4,5-g][1,3]benzothiazol-2-yl]-2-furamide] | 57% | 102 | 79 | 81 | 94 | 85 | 123 | 90 | 84 | 95 | 9 | 101 | 43 | 116 | 30 | 88 | 101 | 99 | 121 | 114 | TTK activity in kinase profiling (TTK): 60; HER4 activity in kinase profiling (HER4): 102; CHK2 activity in kinase profiling (CHK2): 88; BRK activity in kinase profiling (BRK): 98; p38a MAPK activity in kinase profiling (p38a MAPK): 96; VEG-FR activity in kinase profiling (VEG-FR): 53; MELK activity in kinase profiling (MELK): 71; IRAK4 activity in kinase profiling (IRAK4): 50; ERK2 activity in kinase profiling (ERK2): 112; NEK2a activity in kinase profiling (NEK2a): 83; PKCγ activity in kinase profiling (PKCγ): 100; IRR activity in kinase profiling (IRR): 92; AMPK (hum) activity in kinase profiling (AMPK (hum)): 84; PHK activity in kinase profiling (PHK): 110
2 | Cc1nc2ccc3sc(NC(=O)c4ccc5ncsc5c4)nc3c2s1 [3A5, N-(2-methyl[1,3]thiazolo[5,4-e][1,3]benzothiazol-7-yl)-1,3-benzothiazole-6-carboxamide] | 68% | 107 | 79 | 56 | 93 | 72 | 107 | 87 | 102 | 88 | 61 | 119 | 50 | 127 | 72 | 22 | 116 | 94 | 125 | 150 | TTK activity in kinase profiling (TTK): 56; HER4 activity in kinase profiling (HER4): 94; CHK2 activity in kinase profiling (CHK2): 77; BRK activity in kinase profiling (BRK): 97; p38a MAPK activity in kinase profiling (p38a MAPK): 94; VEG-FR activity in kinase profiling (VEG-FR): 108; MELK activity in kinase profiling (MELK): 69; IRAK4 activity in kinase profiling (IRAK4): 46; ERK2 activity in kinase profiling (ERK2): 109; NEK2a activity in kinase profiling (NEK2a): 81; PKCγ activity in kinase profiling (PKCγ): 102; IRR activity in kinase profiling (IRR): 87; AMPK (hum) activity in kinase profiling (AMPK (hum)): 68; PHK activity in kinase profiling (PHK): 104
